These results are taken from US6372769B1 (priority 1999, dated 2002).

Several values for one entry are separate records, joined by “and”; a condition that tells them apart may be missing. Identical values can stand only once.

Some test systems named below: Septoria nodorum; Sphaerotheca fulginea; Pyricularia oryzae; Plasmopara viticola.
What all share (details): in vivo
Data set [1] concerns Puccinia recondita f. sp. tritici.
Data set [2] has as its system Erysiphe graminis f. sp. tritici.

As to `O=C(Nc1c(Cl)c(Cl)c(Cl)c(Cl)c1Cl)c1sc(C(F)(F)F)nc1C(F)(F)F` [Compound 2], in data set [1], the “percent disease control, Wheat Leaf Rust (WLR)” value (“percent disease control … (WLR)” for short) is 100% and 99% and 90%. Moreover, the “percent disease control, Wheat Powdery Mildew (WPM)” value (from here on “percent disease control … (WPM)”) in data set [2] is 80% and 75% and 50%.
In the case of `O=C(Nc1c(Br)cc(Br)cc1Br)c1sc(C(F)(F)F)nc1C(F)(F)F` [Compound 3], the “percent disease control … (WLR)” value in data set [1] was 99% and 90% and 85%. In addition, the “percent disease control … (WPM)” value in data set [2] was 85% and 80% and 50%.
In the case of `O=C(Nc1cc(F)c(F)c(F)c1F)c1sc(C(F)(F)F)nc1C(F)(F)F` [Compound 4], the “plant damage (necrosis / death of plant) in SNW test” value in the data set with Septoria nodorum is reported as “—/5”. Further, the “percent disease control, Cucumber Powdery Mildew (CPM)” value with Sphaerotheca fulginea is 0% and 0/5%. Also, in the data set on Pyricularia oryzae, the “plant damage (necrosis / death of plant) in RB test” value is listed as 50/5.
Turning to `O=C(Nc1c(Br)cc(OC(F)(F)F)cc1Br)c1sc(C(F)(F)F)nc1C(F)(F)F` [Compound 5], the “percent disease control, Grape Downy Mildew (GDM)” value in the data set on Plasmopara viticola amounted to 0%. In addition, in the data set with Septoria nodorum, the “percent disease control, Septoria on Wheat (SNW)” value was 80% and 75%. For the same molecule, the “percent disease control … (WLR)” value in data set [1] is 100% and 95%. The “percent disease control … (WPM)” value in data set [2] was 95% and 80%. In the data set with Pyricularia oryzae, the “percent disease control, Rice Blast (RB)” value is 95% and 90%.
